The values below come from patent US20150175644A1, “MANNOSE DERIVATIVES AS ANTAGONISTS OF BACTERIAL ADHESION” (UNIVERSITY OF BASEL, priority 2009, published 2015).

In one series the test system is E. coli (strain RS 218). In words: Preliminary clotting assay (E. coli-mediated clotting of C. albicans cells). It is filed as cell-based. The settings on record: minimal concentration that prevents clotting of C. albicans cells by E. coli RS 218; triplicate. The protocol: Overnight cultures of C. albicans (strain ATCC 60193) and E. coli (strain RS 218) are prepared by suspending colony material from agar plates in 10 ml trypticase soy broth (TSB) each and incubated for 16-18 h at 37° C., the culture of E. coli without shaking, but the culture of C. albicans with agitation on a horizontal shaker at 200 rpm. The cells of 2 ml of each culture are washed twice with 1 ml phosphate buffered saline (PBS) by centrifugation (10 min at 2500×g), discarding the supernatant and re-suspension of the cell pellet in fresh PBS. After the last washing step, the optical density at 600 nm is measured and adjusted to 5.0 for C. albicans (corresponding to approx. 5×10^7 viable cells/ml) and to 3.0 for E. coli (corresponding to approx. 5×10^9 viable cells/ml). […] Each test well is supplied with 33 μl PBS or the test solution of the desired concentration, and 33 μl of E. coli suspension is added and mixed by slightly tapping the plate. After 5 min 33 μl of C. albicans suspension is added to give a total volume of 100 μl per well. As a negative clumping control, one well is left without addition of E. coli. The plate is incubated for 20 min at 37° C. on a horizontal shaker at 150 rpm and the cells are allowed to settle for 10 min at r.t. before the wells are inspected with the help of a magnifier for visual clumps. For each substance the minimal concentration that prevents clotting of C. albicans cells is noted. Each experiment is performed in triplicate.

Series [1] relates to GFP tagged E. coli strain UTI89. In words: Flow cytometry inhibition assay (adherence of GFP tagged UTI89 to bladder cell line 5637). It counts as cell-based. The settings on record: for IC50: Escherichia coli; for rIC50: ratio of IC50 to IC50 of reference HM, cell line 5637. The method, then:
The GFP tagged E. coli strain UTI89 is statically incubated in Luria-Bertani broth for 24 h, washed twice and adjusted to an optical density at 600 nm (OD600) between 2.0 and 3.0. The human epithelial bladder carcinoma cell line 5637 was grown in RPMI 1640 medium, supplemented with 10% fetal calf serum (FCS), 100 U/ml penicillin and 100 μg/ml streptomycin at 37° C., 5% CO2 in 24-well plates. Cells were infected with 200 μl bacterial suspension (multiplicity of infection of 1:50 (cell:bacteria)), premixed with 25 μl of antagonists at different concentrations. To homogenize the infection, plates were centrifuged at room temperature for 3 min at 600 g. After an incubation of 1.5 h at 37° C., infected cells were washed four times with RPMI 1640 medium and suspended in ice-cold PBS for 5-20 min. Samples were measured with a CyAn ADP flow cytometer (Becton Dickinson, San Jose, Calif.) and analyzed by gating on the eukaryotic cells based on forward (FSC) and side scatter (SSC). A total of 10^4 cells were measured per sample. Data were acquired in a linear mode for the SSC and logarithmic mode for FSC and the green fluorescent channel FL1-H (e.g. GFP). The mean fluorescence intensity (MFI) of FL1-H was counted as a surrogate marker for the adherence of bacteria. Quantification of adhesion was evaluated with the FlowJo software 9.0.1 (Tree Star, Inc., Ashland, Oreg., USA). IC50 values were determined by plotting the concentration of the antagonist in a logarithmic mode versus the MFI and by fitting the curve with the prism software (GraphPad, inhibition curve, variable slope). The relative IC50 (rIC50) is the ratio of the IC50 of the test compound to the IC50 of the reference compound HM (n-heptyl α-D-mannopyranoside.
(In general: Flow cytometry measures light scatter and fluorescence of single cells or particles in a stream.)

A further series has as its system E. coli strain UTI89. The experiment in a line: Aggregometer assay (disaggregation of E. coli UTI89 from guinea pig erythrocytes). It is filed as cell-based. The settings on record: relative to heptyl α-D-mannopyranoside (rIC50=1). The protocol: In analogy to N. Firon, I. Ofek, N. Sharon, Biochem. Biophys. Res. Comm. 1982, 105, 1426-1432, the following assay is conducted: E. coli strain UTI89 is statically incubated in Luria-Bertani broth for 24 h, washed twice and adjusted to an optical density at 600 nm (OD600) of 4.0. The percentage of aggregation of UTI89 to guinea pig erythrocytes (GPE) is quantitatively measured using an APACT 4004 aggregometer (Endotell AG, Allschwil, Switzerland) at 740 nm, 37° C. under stirring at 1000 rpm. For calibration, first the protein poor plasma (PPP) is measured using PBS 1% and set as 100% aggregation, followed by the protein rich plasma (PRP) using GPE at an OD600 of 4.0, set as 0% aggregation. After calibration, the measurement is initiated using 250 μL GPE and 50 μL bacterial suspension. Following the aggregation phase of 600 s, 25 μL of the antagonists at different concentrations are added and disaggregation is monitored over 1400 s. The FimH-deleted mutant of E. coli UTI89 is used to proof FimH-specific GPE agglutination. For evaluation, the area under the disaggregation curve (AUC) is calculated and compared to the reference, heptyl α-D-mannopyranoside (see Table 2). The activities are reported as rel. IC50 (rIC50) with heptyl α-D-mannopyranoside as reference compound (rIC50=1).

The nature of series [2]: In vivo pharmacokinetics, single dose, urine and plasma sampling. On the set-up: species or system mouse. The settings on record: single i.v. application of 50 mg/kg, applied antagonist detected. The method, then: The aim is the identification of FimH antagonists suitable for intravenous (i.v.) or preferably peroral (p.o.) applications. Before infection studies in a mouse disease model could be performed, the in vivo pharmacokinetic parameters (Cmax, AUC) had to be determined, to ensure the antagonists availability in the target organ (bladder). Single-dose pharmacokinetic studies were performed by i.v. and p.o. application of the FimH antagonists at a concentration of 50 mg/kg followed by urine and plasma sampling. […] Antagonists were applied i.v. by injection into the tail vein and p.o. using a gavage followed by blood and urine sampling (10 μL) after 6 min, 30 min, 1 h, 2 h, 4 h, 6 h, 8 h and 24 h. Before analysis, proteins in blood and urine samples were precipitated using methanol and centrifuged for 11 min at 13,000 rpm. The supernatant was transferred into a 96-well plate and analyzed by LC-MS.

By IC50 is commonly meant the concentration that inhibits the measured activity by half. Low values mean higher potency, high ones lower potency.

With `O=[N+]([O-])c1ccc2c(ccn2-c2ccc(O[C@H]3O[C@H](CO)[C@@H](O)[C@H](O)[C@@H]3O)c(F)c2)c1` [Compound 34, 2-Fluoro-4-(5-nitroindol-1-yl)phenyl α-D-mannopyranoside], the “Average conc. to prevent clotting” value with E. coli (strain RS 218) came out at 0.833 µM.
Take `OC[C@H]1O[C@H](Oc2ccc(-n3ccc4ccccc43)cc2Cl)[C@@H](O)[C@@H](O)[C@@H]1O` [Compound 29a, 2-Chloro-4-(indol-1-yl)phenyl α-D-mannopyranoside]: the “Average conc. to prevent clotting” value with E. coli (strain RS 218) came out at 1.111 µM.
On to `O=[N+]([O-])c1ccc2c(ccn2-c2ccc(O[C@H]3O[C@H](CO)[C@@H](O)[C@H](O)[C@@H]3O)c(Cl)c2)c1` [Compound 29b, 2-Chloro-4-(5-nitroindol-1-yl)phenyl α-D-mannopyranoside], for which the “Average conc. to prevent clotting” value with E. coli (strain RS 218) worked out at 0.556 µM. In addition, in series [1], 590 ± 45 nM corresponded to half-maximal inhibition (IC50) and the rIC50 came to 0.15.
As for `OC[C@H]1O[C@H](Oc2ccc(-n3ccc4ccccc43)cc2F)[C@@H](O)[C@@H](O)[C@@H]1O` [Compound 32, 2-Fluoro-4-(indol-1-yl)phenyl α-D-mannopyranoside], the “Average conc. to prevent clotting” value with E. coli (strain RS 218) worked out at 5.556 µM.
In the case of `CCCCCCCO[C@H]1O[C@H](CO)[C@@H](O)[C@H](O)[C@@H]1O` [HM, heptyl α-D-mannopyranoside, reference compound], the “rIC50 (measured in the aggregometer assay)” value in the series with E. coli strain UTI89 is on record as 1. Further, the AUC0-24 i.v. in series [2] (plasma) was 34.3 ± 33.3 µg·h/mL. Also, the AUC0-24 i.v. in series [2] (urine) turned out to be 2469.3 ± 636.4 µg·h/mL. In addition, in the series on E. coli (strain RS 218), the “Average conc. to prevent clotting” value amounted to 42 µM. In addition, in series [1], 3900 ± 1600 nM corresponded to half-maximal inhibition (IC50) and the rIC50 is 1.
